According to ChEMBL document CHEMBL5154882, “Discovery of 4-Hydroxyquinazoline Derivatives as Small Molecular BET/PARP1 Inhibitors That Induce Defective Homologous Recombination and Lead to Synthetic Lethality for Triple-Negative Breast Cancer Therapy” (J Med Chem, 2022):

Assays:
MDA-MB-468 = test: Antiproliferative activity against human MDA-MB-468 cells assessed as reduction in cell viability incubated for 72 hrs by MTT assay; type: functional, cell-based; conditions: MDA-MB-468, 72 h
[1] = target: Poly [ADP-ribose] polymerase 1 (Homo sapiens, UniProt P09874); test: Inhibition of PARP1 (unknown origin) at 1 uM relative to control
Chain of Poly [ADP-ribose] polymerase 1 (P09874 whole entry): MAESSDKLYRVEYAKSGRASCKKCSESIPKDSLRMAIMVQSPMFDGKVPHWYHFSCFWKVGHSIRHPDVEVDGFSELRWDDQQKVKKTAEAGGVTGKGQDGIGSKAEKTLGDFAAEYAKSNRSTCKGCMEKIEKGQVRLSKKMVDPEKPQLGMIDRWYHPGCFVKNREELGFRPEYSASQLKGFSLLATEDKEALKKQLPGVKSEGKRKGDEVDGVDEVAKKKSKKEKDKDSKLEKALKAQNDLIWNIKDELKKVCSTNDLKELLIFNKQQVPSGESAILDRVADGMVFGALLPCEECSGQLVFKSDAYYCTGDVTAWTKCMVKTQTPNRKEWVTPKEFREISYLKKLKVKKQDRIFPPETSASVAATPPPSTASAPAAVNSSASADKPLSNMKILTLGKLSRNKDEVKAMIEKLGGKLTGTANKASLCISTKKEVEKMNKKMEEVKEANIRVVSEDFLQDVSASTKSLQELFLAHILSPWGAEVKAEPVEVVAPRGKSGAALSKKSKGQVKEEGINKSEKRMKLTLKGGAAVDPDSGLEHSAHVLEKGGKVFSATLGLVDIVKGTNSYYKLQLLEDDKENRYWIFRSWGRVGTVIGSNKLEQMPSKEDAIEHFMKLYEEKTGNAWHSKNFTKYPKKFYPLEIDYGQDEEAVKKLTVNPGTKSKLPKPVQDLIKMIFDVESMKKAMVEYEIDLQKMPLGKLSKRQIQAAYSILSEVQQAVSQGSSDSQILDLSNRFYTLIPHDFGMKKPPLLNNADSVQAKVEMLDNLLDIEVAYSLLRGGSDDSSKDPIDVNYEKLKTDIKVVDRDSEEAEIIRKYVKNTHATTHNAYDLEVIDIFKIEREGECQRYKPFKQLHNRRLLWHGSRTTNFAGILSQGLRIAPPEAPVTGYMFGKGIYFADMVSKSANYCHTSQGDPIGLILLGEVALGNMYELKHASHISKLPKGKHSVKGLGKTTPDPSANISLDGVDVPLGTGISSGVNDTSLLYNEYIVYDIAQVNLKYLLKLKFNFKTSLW

[2] = target: Bromodomain-containing protein 4 (Homo sapiens, UniProt O60885); test: Inhibition of BRD4 (unknown origin) at 1 uM relative to control
MDA-MB-231 = test: Antiproliferative activity against human MDA-MB-231 cells assessed as reduction in cell viability incubated for 72 hrs by MTT assay; type: functional, cell-based; conditions: MDA-MB-231, 72 h

| SMILES | IC50 (MDA-MB-468) [µM] | inhibition [1] [%] | inhibition [2] [%] | IC50 (MDA-MB-231) [µM] |
| --- | --- | --- | --- | --- |
| COc1cc(-c2nc3cccc(Cl)c3c(=O)[nH]2)ccc1Cc1n[nH]c(=O)c2ccccc12 | 34.7 | 33.9 | 43.3 | 35.1 |
| O=c1[nH]c(-c2cc(F)cc(Cc3n[nH]c(=O)c4ccccc34)c2)nc2ccc(F)cc12 | 12.1 | 77.5 | 51.2 | 13.2 |
| O=c1[nH]c(-c2cc(F)cc(Cc3n[nH]c(=O)c4ccccc34)c2)nc2ccc(Cl)cc12 | 12.3 | 78 | 54.5 | 15 |
| O=c1[nH]c(-c2cc(Cc3n[nH]c(=O)c4ccccc34)ccc2F)nc2ccc(Br)cc12 | 19.5 | 76.8 | 39.5 | 24.1 |
| O=c1[nH]nc(Cc2ccc(-c3nc4cccc(Cl)c4c(=O)[nH]3)cc2F)c2ccccc12 | 21.2 | 38.5 | 53.4 | 22 |
| COc1ccc2nc(-c3ccc(Cc4n[nH]c(=O)c5ccccc45)c(F)c3)[nH]c(=O)c2c1 | 19.4 | 39.4 | 51.5 | 25.2 |
| O=c1[nH]c(-c2ccc(Cc3n[nH]c(=O)c4ccccc34)c(F)c2)nc2ccc(F)cc12 | 17.2 | 38.2 | 53.3 | 22 |
| O=c1[nH]c(-c2cc(Cc3n[nH]c(=O)c4ccccc34)ccc2F)nc2ccc(F)cc12 | 19.1 | 68.5 | 43.7 | 18.6 |
| COc1ccc2nc(-c3cccc(Cc4n[nH]c(=O)c5ccccc45)c3)[nH]c(=O)c2c1 | 5.43 | 78.4 | 61.2 | 8.71 |
| O=c1[nH]c(-c2cc(Cc3n[nH]c(=O)c4ccccc34)ccc2F)nc2ccccc12 | 29.2 | 59.6 | 31.6 | 31.7 |
| Cc1cc(-c2nc3ccccc3c(=O)[nH]2)ccc1Cc1n[nH]c(=O)c2ccccc12 | 28.2 | 46.3 | 42.1 | 36 |
| O=c1[nH]c(-c2ccc(Cc3n[nH]c(=O)c4ccccc34)cc2)nc2ccccc12 | 25.4 | 63.8 | 33 | 25 |
| COc1cc(-c2nc3ccccc3c(=O)[nH]2)ccc1Cc1n[nH]c(=O)c2ccccc12 | > 40 | 46.5 | 31.3 | > 40 |
| COc1ccc2nc(-c3cc(Cc4n[nH]c(=O)c5ccccc45)ccc3F)[nH]c(=O)c2c1 | 24.2 | 70.7 | 41 | 22.8 |
| O=c1[nH]c(-c2ccc(Cc3n[nH]c(=O)c4ccccc34)c(F)c2)nc2ccccc12 | 29.7 | 47.2 | 35.1 | 31.5 |
| COc1cc(OC)c2c(=O)[nH]c(-c3ccc(Cc4n[nH]c(=O)c5ccccc45)cc3)nc2c1 | 14.1 | 59.2 | 58.2 | 17 |
| Cc1cccc2nc(-c3cc(F)cc(Cc4n[nH]c(=O)c5ccccc45)c3)[nH]c(=O)c12 | 15.4 | 76.4 | 47.8 | 15.4 |
| O=c1[nH]c(-c2ccc(Cc3n[nH]c(=O)c4ccccc34)cc2)nc2ccc(F)cc12 | 14 | 58.2 | 47.2 | 16.5 |
| COc1cc(-c2nc3cccc(C)c3c(=O)[nH]2)ccc1Cc1n[nH]c(=O)c2ccccc12 | > 40 | 37.2 | 34.4 | > 40 |
| Cc1cc(-c2nc3cccc(C)c3c(=O)[nH]2)ccc1Cc1n[nH]c(=O)c2ccccc12 | 29.6 | 47.6 | 36.8 | > 40 |

| SMILES | IC50 (MDA-MB-468) [µM] | inhibition [1] [%] | inhibition [2] [%] | IC50 (MDA-MB-231) [µM] |
| --- | --- | --- | --- | --- |
| Cc1cccc2nc(-c3cccc(Cc4n[nH]c(=O)c5ccccc45)c3)[nH]c(=O)c12 | 15.4 | 76.3 | 49.6 | 24.6 |
| O=c1[nH]c(-c2cc(F)cc(Cc3n[nH]c(=O)c4ccccc34)c2)nc2ccccc12 | 14.2 | 84.5 | 45.5 | 17.7 |
| Cc1cc(-c2nc3ccc(Br)cc3c(=O)[nH]2)ccc1Cc1n[nH]c(=O)c2ccccc12 | 24.5 | 43.8 | 52.3 | 28.2 |
| O=c1[nH]c(-c2cccc(Cc3n[nH]c(=O)c4ccccc34)c2)nc2ccc(F)cc12 | 6.3 | 74.7 | 64.8 | 9.15 |
| Cc1cccc2c(=O)[nH]c(-c3cc(Cc4n[nH]c(=O)c5ccccc45)ccc3F)nc12 | 35.6 | 61 | 31.2 | 38.2 |
| COc1cc(OC)c2nc(-c3ccc(Cc4n[nH]c(=O)c5ccccc45)c(C)c3)[nH]c(=O)c2c1 | 13 | 55 | 67.8 | 17.9 |
| O=c1[nH]nc(Cc2cc(F)cc(-c3nc4cccc(Cl)c4c(=O)[nH]3)c2)c2ccccc12 | 14.7 | 75.1 | 52.8 | 13.4 |
| O=c1[nH]c(-c2cc(Cc3n[nH]c(=O)c4ccccc34)ccc2F)nc2ccc(Cl)cc12 | 20.8 | 68.6 | 42.6 | 21.1 |
| COc1cc(OC)c2c(=O)[nH]c(-c3ccc(Cc4n[nH]c(=O)c5ccccc45)c(OC)c3)nc2c1 | 25.3 | 35.3 | 51 | 27.7 |
| O=c1[nH]c(-c2ccc(Cc3n[nH]c(=O)c4ccccc34)cc2)nc2ccc(Cl)cc12 | 17 | 52.3 | 49.3 | 17.1 |
| COc1cc(OC)c2nc(-c3cc(Cc4n[nH]c(=O)c5ccccc45)ccc3F)[nH]c(=O)c2c1 | 18.6 | 72 | 47.5 | 22.1 |
| O=c1[nH]nc(Cc2ccc(-c3nc4cccc(Cl)c4c(=O)[nH]3)cc2)c2ccccc12 | 15.4 | 58.5 | 48.9 | 21 |
| COc1cc(OC)c2c(=O)[nH]c(-c3cc(F)cc(Cc4n[nH]c(=O)c5ccccc45)c3)nc2c1 | 7.49 | 82.8 | 63.4 | 9.87 |
| O=c1[nH]nc(Cc2ccc(F)c(-c3nc4cccc(Cl)c4c(=O)[nH]3)c2)c2ccccc12 | 21.6 | 72.8 | 40.9 | 23.3 |
| COc1cc(OC)c2c(=O)[nH]c(-c3cccc(Cc4n[nH]c(=O)c5ccc(Cl)cc45)c3)nc2c1 | 12.8 | 43.2 | 72.2 | 15.5 |
| COc1ccc2nc(-c3ccc(Cc4n[nH]c(=O)c5ccccc45)c(OC)c3)[nH]c(=O)c2c1 | 28.3 | 36.7 | 45.2 | 33.6 |
| O=c1[nH]c(-c2cccc(Cc3n[nH]c(=O)c4ccccc34)c2)nc2ccccc12 | 16.2 | 82.4 | 47.2 | 21.3 |
| COc1ccc2nc(-c3cc(F)cc(Cc4n[nH]c(=O)c5ccccc45)c3)[nH]c(=O)c2c1 | 12.3 | 72.1 | 51.3 | 15.3 |
| Cc1cc(-c2nc3ccc(F)cc3c(=O)[nH]2)ccc1Cc1n[nH]c(=O)c2ccccc12 | 20.2 | 49.5 | 54.2 | 25.1 |
| COc1cc(-c2nc3ccc(Cl)cc3c(=O)[nH]2)ccc1Cc1n[nH]c(=O)c2ccccc12 | 35.6 | 37.1 | 45.8 | 30.6 |
